Reference: PMC11206678, “Peptide-Alkoxyamine Drugs: An Innovative Approach to Fight Schistosomiasis: “Digging Their Graves with Their Forks”” (Pathogens, 2024)
“Also recorded” adds a separate entry of the source. Counter-ions that a name gives are not always drawn.

Tests used:
[1] = Homolysis kinetics of alkoxyamines by EPR (growth of nitroxide); type: physicochemical; conditions: mixture of diastereoisomers; for Homolysis rate constant kd: 0.1 mM alkoxyamine, O2 as alkyl radical scavenger; for Activation energy Ea: by Equation (2) from kd and T, A = 2.4 10^14 s^−1
Method: Preparation of alkoxyamines and reference samples. All reagents including anhydrous solvents used for the chemical synthesis were purchased from commercially available sources such as Merck, TCI, and Fluorochem, and were used without further purification. All air and/or water-sensitive reactions were carried out under an argon atmosphere with dry solvents using standard syringe-cannula/septa techniques. Routine monitoring of reactions was performed using Merck Silica gel 60 F254, aluminum-supported TLC plates; spots were visualized using UV light and ethanolic acidic para-anisaldehyde solution or ethanolic phosphomolybdic solution, followed by heating. Purifications by means of column chromatography were performed with Silica gel 60 (230–400 mesh). ^1H, ^13C, and ^19F NMR spectra were obtained in CDCl3, MeOD (with residual H2O), D2O, DMSO-d6, or C6D6 solutions on by using Bruker AC400 (400 MHz) and Bruker AC300 (300 MHz) spectrometers. High-resolution mass spectra (HRMS) have been performed using a SYNAPT G2 HDMS (Waters) mass spectrometer equipped with a pneumatically assisted atmospheric pressure ionization (API) source. The sample was ionized in positive electrospray mode under the following conditions: electrospray voltage: 2.8 kV; port voltage: 20 V; Nebulizing gas flow rate (nitrogen): 100 L/h or in negative electrospray mode under the following conditions: electrospray voltage: −2.27 kV; port voltage: −20 V; Nebulizing gas flow rate (nitrogen): 100 L/h. The mass spectra (MS) were obtained with a time-of-flight (TOF) analyzer. The exact mass measurements were carried out in triplicate with external calibration. Homolysis constants were measured by EPR on an EMX Bruker spectrometer from 10^−4 M samples in tertbutyl benzene or in a mixture of H2O-nPrOH (1:1; v:v).
Kinetic experiments. Kinetics of A1–A7 (Scheme 2) for series L and D are performed by monitoring the growth of nitroxide by Electron Paramagnetic Resonance (X-band EMX Bruker machine) in tert-butylbenzene and a water/n-PrOH (for a good solubility of the alkoxyamine) as solvents and using O2 as alkyl radical scavenger to suppress the back reaction (kc in Scheme 2) as already reported. Homolysis rate constants kd are given by Equation (1) ([nitroxide]∞ = [alkoxyamine]0 = 0.1 mM, see Table S1) and the subsequent activation energies Ea given by Equation (2). (1) lnnitroxide∞−nitroxidet/nitroxide∞=−kd·t, (2) Ea=−RTlnkd/A.

[2] = tested on: Schistosoma mansoni adult worms; assay: Viability of Schistosoma mansoni adult worms in vitro; type: cell-based, Schistosoma mansoni NMRI strain; conditions: 100 μg/mL, 37 °C; for Activity/toxicity towards schistosomes (in words): adult worms; for Time to Kill 50% of Parasites / Time to Kill 100% of Parasites: adult worms in RPMI 1640/Tween 80/DMSO, observed up to 72 h, duplicate wells
Method: Experiments on the viability of Schistosoma mansoni adult worms. In vitro tests were performed on Schistosoma mansoni NMRI strains. This parasite is lab maintained on Biomphalaria glabrata (BRE strain) as intermediate mollusc host and Golden Hamster (Janvier Labs, Le Genest-Saint-Isle, France) as definitive vertebrate host. Methods, for molluscs’ and hamsters’ infection and for parasite recovery, were previously described. Adult worms were recovered by hepatic perfusion technique between 42 and 47 days post hamster exposition to parasite larvae. Worms were carefully collected and disposed in 12-well Falcon® plate containing 2 mL of RPMI 1640 (supplemented with L-glutamine and Hepes 25 mM). The plates containing a minimum of 15 worms by well were then placed in an incubator chamber at 37 °C and 5% CO2. The worms sex ratio was almost balanced in each well. The drug was first dissolved in DMSO (Sigma-Aldrich) to give a 100 mg/mL mother solution. Then the stock solution was complemented with Tween 80 and RPMI to obtain the following final ratio dilution: RPMI 1640/Tween 80/DMSO and 1000/0.95/3.8, v/v/v.
All molecules were tested at a final concentration of 100 µg/mL and 10 µg/mL. A negative control consisted in adding the same RPMI 1640/Tween 80/DMSO solution, but without any drug and a positive control consisted in adding praziquantel. All molecules and control were performed in duplicates of well. The worm viability was checked after 1, 2, 3, 4, 5, 6, 7, 8, 24, 48, and 72 h after adding the molecule.

[3] = C–ON bond homolysis in t-BuPh, EPR, T (°C): A1L 128.0, A3L 125.0, A5L 130.0, A6L 125, A7L 126.5, A1D 122.5, A3D 119.8, A5D 130
[4] = C–ON bond homolysis in water/n-PrOH v/v 1:1, EPR, T (°C): A1L 95.1, A3L 94.5, A4L 94.6, A5L 94.0, A6L 94.8, A7L 94.3, A1D 93.5, A3D 92.6, A4D 95.0, A5D 94.6

Molecule | Homolysis rate constant kd [1, 3] | Homolysis rate constant kd [1, 4] | Activation energy Ea ([1]; in t-BuPh) | Activation energy Ea ([1]; in water/n-PrOH v/v 1:1) | Activity/toxicity towards schistosomes (in words) [2] | Time to Kill 50% of Parasites [2] | Time to Kill 100% of Parasites [2] | Time to Kill 50% of Parasites ([2]; listed as praziquantel)
CC(ON1C(C)(C)CCCC1(C)C)c1ccc(NC(=O)[C@H](Cc2ccccc2)NC(=O)OC(C)(C)C)cc1 (mixture of isomers) [A1L, tert-butyl ((2S)-1-oxo-3-phenyl-1-((4-(1-((2,2,6,6-tetramethylpiperidin-1-yl)oxy)ethyl)phenyl)amino)propan-2-yl)carbamate] | 11.0 10^−4 s^−1 | 1.5 10^−4 s^−1 | 31.81 kcal/mol | 30.69 kcal/mol |  |  |  | 
L-phenylalanyl-L-valyl-L-phenylalanine [P18L] |  |  |  |  | no activity |  |  | 
4-(((S)-1-(((S)-1-(((S)-1-carboxy-2-phenylethyl)amino)-3-methyl-1-oxobutan-2-yl)amino)-1-oxo-3-phenylpropan-2-yl)amino)-4-oxobutanoic acid [P10L] |  |  |  |  | some activity towards schistosomes | 6 h | 24 h | 
(S)-1-(((S)-1-(((S)-1-carboxy-2-phenylethyl)amino)-3-methyl-1-oxobutan-2-yl)amino)-1-oxo-3-phenylpropan-2-aminium trifluoroacetate [P11L] |  |  |  |  | no activity |  |  | 
Benzyl 4-(((S)-1-(((S)-1-(((S)-1-((4-ethylphenyl)amino)-1-oxo-3-phenylpropan-2-yl)amino)-3-methyl-1-oxobutan-2-yl)amino)-1-oxo-3-phenylpropan-2-yl)amino)-4-oxobutanoate [P23L] |  |  |  |  | no activity |  |  | 
(S)-1-(((S)-1-(((S)-1-((4-ethylphenyl)amino)-1-oxo-3-phenylpropan-2-yl)amino)-3-methyl-1-oxobutan-2-yl)amino)-1-oxo-3-phenylpropan-2-aminium trifluoroacetate [P22L] |  |  |  |  | no activity |  |  | 
CC(ON1C(C)(C)CCCC1(C)C)c1ccc(NC(=O)[C@@H](Cc2ccccc2)NC(=O)OC(C)(C)C)cc1 (mixture of isomers) [A1D, tert-butyl ((2R)-1-oxo-3-phenyl-1-((4-(1-((2,2,6,6-tetramethylpiperidin-1-yl)oxy)ethyl)phenyl)amino)propan-2-yl)carbamate] | 9.6 10^−4 s^−1 | 1.0 10^−4 s^−1 | 31.6 kcal/mol | 30.83 kcal/mol |  |  |  | 
O=C(O)C(F)(F)F [TFA, reference compound] |  |  |  |  |  | 7 h | 24 h | 
CC(ON1C(C)(C)CCCC1(C)C)c1ccc(NC(=O)[C@H](Cc2ccccc2)NC(=O)[C@@H](NC(=O)[C@H](Cc2ccccc2)NC(=O)OC(C)(C)C)C(C)C)cc1 (stereo partly drawn) [A3L, tert-butyl ((2S)-1-(((2S)-3-methyl-1-oxo-1-(((2S)-1-oxo-3-phenyl-1-((4-(1-((2,2,6,6-tetramethylpiperidin-1-yl)oxy)ethyl)phenyl)amino)propan-2-yl)amino)butan-2-yl)amino)-1-oxo-3-phenylpropan-2-yl)carbamate] | 8.4 10^−4 s^−1 | 1.8 10^−4 s^−1 | 31.79 kcal/mol | 30.78 kcal/mol | inactive; also recorded: non-activity |  |  | 
CC(ON1C(C)(C)CCCC1(C)C)c1ccc(NC(=O)[C@H](Cc2ccccc2)NC(=O)[C@@H](NC(=O)[C@@H](N)Cc2ccccc2)C(C)C)cc1.O=C(O)C(F)(F)F (stereo partly drawn) [A4L, (2S)-1-(((2S)-3-methyl-1-oxo-1-(((2S)-1-oxo-3-phenyl-1-((4-(1-((2,2,6,6-tetramethylpiperidin-1-yl)oxy)ethyl)phenyl)amino)propan-2-yl)amino)butan-2-yl)amino)-1-oxo-3-phenylpropan-2-aminium trifluoroacetate] |  | 1.0 10^−4 s^−1 |  | 30.9 kcal/mol | most efficient molecules | 2 h | 24 h | 
CC(ON1C(C)(C)CCCC1(C)C)c1ccc(NC(=O)[C@H](Cc2ccccc2)NC(=O)[C@@H](NC(=O)[C@@H](N)Cc2ccccc2)C(C)C)cc1 (stereo partly drawn) [A5L, (2S)-2-((S)-2-amino-3-phenylpropanamido)-3-methyl-N-((2S)-1-oxo-3-phenyl-1-((4-(1-((2,2,6,6-tetramethylpiperidin-1-yl)oxy)ethyl)phenyl)amino)propan-2-yl)butanamide] | 18 10^−4 s^−1 | 1.3 10^−4 s^−1 | 31.57 kcal/mol | 30.66 kcal/mol | most efficient molecules | 2 h | 7 h | 
CC(ON1C(C)(C)CCCC1(C)C)c1ccc(NC(=O)[C@H](Cc2ccccc2)NC(=O)[C@@H](NC(=O)[C@H](Cc2ccccc2)NC(=O)CCC(=O)OCc2ccccc2)C(C)C)cc1 (stereo partly drawn) [A6L, Benzyl 4-(((2S)-1-(((2S)-3-methyl-1-oxo-1-(((2S)-1-oxo-3-phenyl-1-((4-(1-((2,2,6,6-tetramethylpiperidin-1-yl)oxy)ethyl)phenyl)amino)propan-2-yl)amino)butan-2-yl)amino)-1-oxo-3-phenylpropan-2-yl)amino)-4-oxobutanoate] | 11.0 10^−4 s^−1 | 1.1 10^−4 s^−1 | 31.57 kcal/mol | 30.86 kcal/mol | less active; also recorded: lower activity | 24 h | 48 h | 
O=C(C1CCCCC1)N1CC(=O)N2CCc3ccccc3C2C1 (stereo not drawn) [PZQ, praziquantel, reference compound] |  |  |  |  |  | 1 h | 1 h | < 1 h
(S)-2-((S)-2-amino-3-phenylpropanamido)-N-((S)-1-((4-ethylphenyl)amino)-1-oxo-3-phenylpropan-2-yl)-3-methylbutanamide [P25L] |  |  |  |  | no activity |  |  | 
CC(ON1C(C)(C)CCCC1(C)C)c1ccc(NC(=O)[C@H](Cc2ccccc2)NC(=O)[C@@H](NC(=O)[C@H](Cc2ccccc2)NC(=O)CCC(=O)O)C(C)C)cc1 (stereo partly drawn) [A7L, 4-(((2S)-1-(((2S)-3-methyl-1-oxo-1-(((2S)-1-oxo-3-phenyl-1-((4-(1-((2,2,6,6-tetramethylpiperidin-1-yl)oxy)ethyl)phenyl)amino)propan-2-yl)amino)butan-2-yl)amino)-1-oxo-3-phenylpropan-2-yl)amino)-4-oxobutanoic acid] | 15.0 10^−4 s^−1 |  | 31.45 kcal/mol | 30.93 kcal/mol | less active | 24 h | 48 h | 
